Measured values from PMC11012124, “Synthesis of Novel Triazine-Based Chalcones and 8,9-dihydro-7H-pyrimido[4,5-b][1,4]diazepines as Potential Leads in the Search of Anticancer, Antibacterial and Antifungal Agents” (International Journal of Molecular Sciences, 2024).

How the values were obtained:
60 cancer cell lines = assay: NCI-60 one-dose screen (10 μM); assay type: cell-based; conditions: Homo sapiens; one dose of 10 μM, mean over 60 cancer cell lines; read-out: Mean Growth Percent (MGP)
Source text: Additionally, the mean of the growth percentages (MGP) of each compound against all the 60 cancer cell lines is also reported, which is used as one of the selection criteria to continue with tests at five concentration doses.

[1] = Hemolytic activity, spectrophotometric; assay type: cell-based, human; conditions: human, human red blood cells (huRBC), 5% hematocrit, 200 μg/mL, 37 °C
CCRF-CEM = assay: cells; conditions: Homo sapiens, 48 h; for CC50: read-out: LC50
HL-60(TB) = assay: cells; conditions: Homo sapiens, HL-60, 48 h; for CC50: read-out: LC50
MOLT-4 = assay: cells; conditions: Homo sapiens, MOLT-4, 48 h; for CC50: read-out: LC50
RPMI-8226 = assay: cells; conditions: Homo sapiens, RPMI-8226, 48 h; for CC50: read-out: LC50
EKVX = assay: cells; conditions: Homo sapiens, 48 h; for CC50: read-out: LC50
HOP-62 = assay: cells; conditions: Homo sapiens, HOP-62, 48 h; for CC50: read-out: LC50
NCI-H226 = assay: cells; conditions: Homo sapiens, NCI-H226, 48 h; for CC50: read-out: LC50
NCI-H322M = assay: cells; conditions: Homo sapiens, 48 h; for CC50: read-out: LC50
COLO 205 = assay: cells; conditions: Homo sapiens, COLO 205, 48 h; for CC50: read-out: LC50
HCT-116 = assay: cells; conditions: Homo sapiens, HCT-116, 48 h; for CC50: read-out: LC50
HT29 = assay: cells; conditions: Homo sapiens, HT-29, 48 h; for CC50: read-out: LC50
SF-268 = assay: cells; conditions: Homo sapiens, SF-268, 48 h; for CC50: read-out: LC50
SF-295 = assay: cells; conditions: Homo sapiens, SF-295, 48 h; for CC50: read-out: LC50
SF-539 = assay: cells; conditions: Homo sapiens, SF-539, 48 h; for CC50: read-out: LC50, SF-539, 48 h
U251 = assay: cells; conditions: Homo sapiens, U-251, 48 h; for GI50: U251, 48 h; for CC50: read-out: LC50
LOX IMVI = assay: cells; conditions: Homo sapiens, 48 h; for CC50: read-out: LC50, LOX IMVI, 48 h
MALME-3M = assay: cells; conditions: Homo sapiens, 48 h; for CC50: read-out: LC50
M14 = assay: cells; conditions: Homo sapiens, M14, 48 h; for CC50: read-out: LC50
MDA-MB-435 = assay: cells; conditions: Homo sapiens, MDA-MB-435, 48 h; for CC50: read-out: LC50
UACC-257 = assay: cells; conditions: Homo sapiens, UACC-257, 48 h; for CC50: read-out: LC50
UACC-62 = assay: cells; conditions: Homo sapiens, UACC-62, 48 h; for CC50: read-out: LC50
OVCAR-3 = assay: cells; conditions: Homo sapiens, OVCAR-3, 48 h; for CC50: read-out: LC50
OVCAR-4 = assay: cells; conditions: Homo sapiens, OVCAR-4, 48 h; for CC50: read-out: LC50
OVCAR-5 = assay: cells; conditions: Homo sapiens, OVCAR-5, 48 h; for CC50: read-out: LC50
OVCAR-8 = assay: cells; conditions: Homo sapiens, OVCAR-8, 48 h; for CC50: read-out: LC50
A498 = assay: cells; conditions: Homo sapiens, A498, 48 h; for CC50: read-out: LC50
ACHN = assay: cells; conditions: Homo sapiens, 48 h; for CC50: read-out: LC50
SN12C = assay: cells; conditions: Homo sapiens, 48 h; for CC50: read-out: LC50
UO-31 = assay: cells; conditions: Homo sapiens, UO-31, 48 h; for CC50: read-out: LC50
PC-3 = assay: cells; conditions: Homo sapiens, PC-3, 48 h; for CC50: read-out: LC50
DU-145 = assay: cells; conditions: Homo sapiens, DU-145, 48 h; for CC50: read-out: LC50
MCF7 = assay: cells; conditions: Homo sapiens, MCF7, 48 h; for CC50: read-out: LC50
MDA-MB-231/ATCC = assay: cells; conditions: Homo sapiens, MDA-MB-231, 48 h; for CC50: read-out: LC50
HS 578T = assay: cells; conditions: Homo sapiens, 48 h; for CC50: read-out: LC50
BT-549 = assay: cells; conditions: Homo sapiens, BT-549, 48 h; for CC50: read-out: LC50
T-47D = assay: cells; conditions: Homo sapiens, T47D, 48 h; for CC50: read-out: LC50

Cc1ccc(C2CC(c3ccc(S(=O)(=O)NCCNc4nc(Nc5ccc(F)cc5)nc(N(C)C)n4)cc3)=Nc3c(N)nc(N)nc3N2)cc1 (centres unmarked) [31b]
activity at 10 µM (60 cancer cell lines): 48.4%
hemolysis at 24 h, 200 µg/mL [1]: 1.7%
GI50 (CCRF-CEM): 2.81 µM
CC50 (CCRF-CEM): > 100 µM
GI50 (HL-60(TB)): 2.94 µM
CC50 (HL-60(TB)): 20.2 µM
GI50 (MOLT-4): 2.2 µM
CC50 (MOLT-4): 7.53 µM
GI50 (RPMI-8226): 2.94 µM
CC50 (RPMI-8226): > 100 µM
GI50 (EKVX): 5.84 µM
CC50 (EKVX): > 100 µM
GI50 (HOP-62): > 100 µM
CC50 (HOP-62): > 100 µM
GI50 (NCI-H226): > 100 µM
CC50 (NCI-H226): > 100 µM
GI50 (NCI-H322M): > 100 µM
CC50 (NCI-H322M): > 100 µM
GI50 (COLO 205): 11.5 µM
CC50 (COLO 205): > 100 µM
GI50 (HCT-116): 3.81 µM
CC50 (HCT-116): > 100 µM
GI50 (HT29): 2.27 µM
CC50 (HT29): 4.65 µM
GI50 (SF-268): 7.53 µM
CC50 (SF-268): > 100 µM
GI50 (SF-295): 6.6 µM
CC50 (SF-295): > 100 µM
GI50 (SF-539): 3.29 µM
CC50 (SF-539): 78.9 µM
GI50 (U251): 7.08 µM
CC50 (U251): > 100 µM
GI50 (LOX IMVI): 2.09 µM
CC50 (LOX IMVI): 5.11 µM
GI50 (MALME-3M): 4.65 µM
CC50 (MALME-3M): 33.2 µM
GI50 (M14): 4.56 µM
CC50 (M14): > 100 µM
GI50 (MDA-MB-435): 8.79 µM
CC50 (MDA-MB-435): > 100 µM
GI50 (UACC-257): 26 µM
CC50 (UACC-257): > 100 µM
GI50 (UACC-62): 20.9 µM
CC50 (UACC-62): > 100 µM
GI50 (OVCAR-3): 9.93 µM
CC50 (OVCAR-3): > 100 µM
CC50 (OVCAR-4): > 100 µM
GI50 (OVCAR-5): > 100 µM
CC50 (OVCAR-5): > 100 µM
CC50 (OVCAR-8): > 100 µM
GI50 (A498): > 100 µM
CC50 (A498): > 100 µM
GI50 (ACHN): > 100 µM
CC50 (ACHN): > 100 µM
GI50 (SN12C): > 100 µM
CC50 (SN12C): > 100 µM
GI50 (UO-31): > 100 µM
CC50 (UO-31): > 100 µM
GI50 (PC-3): 3.33 µM
CC50 (PC-3): > 100 µM
GI50 (DU-145): > 100 µM
CC50 (DU-145): > 100 µM
GI50 (MCF7): 3.08 µM
CC50 (MCF7): > 100 µM
GI50 (MDA-MB-231/ATCC): 3.86 µM
CC50 (MDA-MB-231/ATCC): > 100 µM
GI50 (HS 578T): 19.4 µM
CC50 (HS 578T): > 100 µM
GI50 (BT-549): 5.46 µM
CC50 (BT-549): 59.4 µM
GI50 (T-47D): 8.75 µM
CC50 (T-47D): > 100 µM

CN(C)c1nc(NCCNS(=O)(=O)c2ccc(C3=Nc4c(N)nc(N)nc4NC(c4ccc(C(F)(F)F)cc4)C3)cc2)nc(N2CCOCC2)n1 (centres unmarked) [30g]
activity at 10 µM (60 cancer cell lines): 38.8%
hemolysis at 24 h, 200 µg/mL [1]: 2.4%
GI50 (CCRF-CEM): 25.9 µM
CC50 (CCRF-CEM): > 100 µM
GI50 (HL-60(TB)): 27.5 µM
CC50 (HL-60(TB)): > 100 µM
GI50 (MOLT-4): 17.3 µM
CC50 (MOLT-4): > 100 µM
GI50 (RPMI-8226): 11.2 µM
CC50 (RPMI-8226): > 100 µM
GI50 (EKVX): 47.2 µM
CC50 (EKVX): > 100 µM
GI50 (HOP-62): 50.7 µM
CC50 (HOP-62): > 100 µM
GI50 (NCI-H226): 17.6 µM
CC50 (NCI-H226): > 100 µM
GI50 (NCI-H322M): 45.4 µM
CC50 (NCI-H322M): > 100 µM
GI50 (COLO 205): 16.5 µM
CC50 (COLO 205): 76.2 µM
GI50 (HCT-116): 41.9 µM
CC50 (HCT-116): > 100 µM
GI50 (HT29): 19.8 µM
CC50 (HT29): > 100 µM
GI50 (SF-268): 19.9 µM
CC50 (SF-268): > 100 µM
GI50 (SF-295): 21.1 µM
CC50 (SF-295): > 100 µM
GI50 (SF-539): 22.5 µM
CC50 (SF-539): > 100 µM
GI50 (U251): 24.2 µM
CC50 (U251): > 100 µM
GI50 (LOX IMVI): 17.1 µM
CC50 (LOX IMVI): 64.1 µM
GI50 (MALME-3M): 19.9 µM
CC50 (MALME-3M): > 100 µM
GI50 (M14): 22 µM
CC50 (M14): > 100 µM
GI50 (MDA-MB-435): 34.2 µM
CC50 (MDA-MB-435): > 100 µM
GI50 (UACC-257): 20.4 µM
CC50 (UACC-257): > 100 µM
GI50 (UACC-62): 16.4 µM
CC50 (UACC-62): 81.1 µM
GI50 (OVCAR-3): 53.9 µM
CC50 (OVCAR-3): > 100 µM
GI50 (OVCAR-4): 37 µM
CC50 (OVCAR-4): > 100 µM
GI50 (OVCAR-5): 27 µM
CC50 (OVCAR-5): > 100 µM
GI50 (OVCAR-8): 59.5 µM
CC50 (OVCAR-8): > 100 µM
GI50 (A498): 24.1 µM
CC50 (A498): > 100 µM
GI50 (ACHN): 64.4 µM
CC50 (ACHN): > 100 µM
GI50 (SN12C): 35.7 µM
CC50 (SN12C): > 100 µM
GI50 (UO-31): 100 µM
CC50 (UO-31): > 100 µM
GI50 (PC-3): 24.6 µM
CC50 (PC-3): > 100 µM
GI50 (DU-145): 72 µM
CC50 (DU-145): > 100 µM
GI50 (MCF7): 18.1 µM
CC50 (MCF7): > 100 µM
GI50 (MDA-MB-231/ATCC): 16.9 µM
CC50 (MDA-MB-231/ATCC): > 100 µM
GI50 (HS 578T): 19.2 µM
CC50 (HS 578T): > 100 µM
GI50 (BT-549): 13.8 µM
CC50 (BT-549): 73.1 µM
GI50 (T-47D): 21.3 µM
CC50 (T-47D): > 100 µM
